The source of these data is patent US20210205638A1, “PARATHYROID HORMONE AND REGENERATION OF DEGENERATIVE DISCS DISEASE” (THE JOHNS HOPKINS UNIVERSITY, priority 2017, published 2021).

Test [1] relates to NP tissues. Kind of test: Western blot of pSmad2 in NP tissue of aged mice. It counts as in vivo, mouse. To be noted: NP tissues of 18-month-old mice. The method, then:
Western blot analyses were conducted on the protein lysates from in vitro cultured NP cells or NP tissues from mice at specific time points after PTH (1-34) treatment and human at different ages with lumbar disc degeneration. The protein extract was centrifuged, the concentration of supernatant evaluated by DC protein assay (Bio-Rad Laboratories), and then separated by SDS-PAGE and blotted on a polyvinylidene fluoride membrane (Bio-Rad Laboratories). Following incubation in specific antibodies, we detected proteins using an enhanced chemiluminescence kit (Amersham Biosciences). We used specific antibodies recognizing rabbit CTGF (CCN2) (Abcam, 1:1000), Aggrecan (ACAN) (Abcan, 1:1000), p-Smad2 (Cell Signaling Technology Inc., 1:1000), Smad2 (Cell Signaling Technology Inc., 1:1000), GAPDH (Cell Signaling Technology Inc., 1:1000), CREB (Abcam, 1:2500), pCREB (Abcam, 1:2500), PTH1R PRB-635P (Covance, 1:100), PTH1R PRB-640P (Covance, 1:500) and goat integrin β6 (Santa Cruz, 1:500) to examine the protein concentrations in the lysates. Co-immunoprecipitation analyses were conducted on the nuclear and cytoplasmic protein extraction using NE-PER Nuclear and Cytoplasmic Extraction Kit (Pierce Thermo Scientific, 78833) from in vitro cultured NP cells treated with PTH (1-34) or vehicle.

For test [2], the target named is T1, PTH1R (Mus musculus, UniProt P41593).
T1 construct: endogenous in cells; host or cells: primary mouse nucleus pulposus (NP) cells isolated from intervertebral discs of 15-day old male mice
T1 sequence (P41593 27-591): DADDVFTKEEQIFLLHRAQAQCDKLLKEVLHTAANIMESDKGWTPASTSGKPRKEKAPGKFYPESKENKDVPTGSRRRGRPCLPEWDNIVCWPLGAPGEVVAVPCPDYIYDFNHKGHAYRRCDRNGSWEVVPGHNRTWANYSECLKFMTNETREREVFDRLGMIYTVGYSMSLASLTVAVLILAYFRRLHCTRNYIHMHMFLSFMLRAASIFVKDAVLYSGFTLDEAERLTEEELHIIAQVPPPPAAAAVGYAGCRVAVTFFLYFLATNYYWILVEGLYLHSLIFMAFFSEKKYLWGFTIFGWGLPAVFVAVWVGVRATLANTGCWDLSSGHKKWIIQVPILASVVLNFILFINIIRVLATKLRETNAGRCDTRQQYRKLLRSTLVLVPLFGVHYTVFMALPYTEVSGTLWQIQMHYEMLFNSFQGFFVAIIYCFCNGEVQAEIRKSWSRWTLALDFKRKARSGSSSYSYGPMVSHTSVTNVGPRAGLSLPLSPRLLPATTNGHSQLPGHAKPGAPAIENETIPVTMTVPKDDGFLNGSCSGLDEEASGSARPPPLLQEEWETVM
Kind of test: Primary cilia visualization and co-localization in NP cells. It counts as cell-based. The method, then:
The localization of PTH signaling components within NP cells was investigated through immunocytochemistry after 48 hours of serum starvation (DMEM, 0.5% FBS, 1% P/S). Cells were treated with PTH (recombinant human PTH, […], Bachem Calif., Inc. King of Prussia, Pa., USA.) or shear stress (1 dyn/cm^2) with times of exposure for 30 minutes, fixed and stained for acetylated α-tubulin of primary cilia, PTH1R (Abcam, 1:100) and pCREP (Abcam, 1:500). Coverslips were mounted with Fluoroshield-DAPI. All cells were imaged using a Zeiss LSM710 META Confocal Laser Scanning microscope fitted with a 63× objective. Region of interest were selected manually using ImageJ software. The intensity profiles along the cilia have been performed by tracing a line across the length of the primary cilia and measuring intensity along this line using ImageJ software. Average intensities in the ciliary region, were measured on at least 30 ciliated cells per condition.

In the case of `CC[C@H](C)[C@H](NC(=O)[C@H](CCC(=O)O)NC(=O)[C@H](CO)NC(=O)[C@@H](NC(=O)[C@@H](N)CO)C(C)C)C(=O)N[C@@H](CCC(N)=O)C(=O)N[C@@H](CC(C)C)C(=O)N[C@@H](CCSC)C(=O)N[C@@H](Cc1cnc[nH]1)C(=O)N[C@@H](CC(N)=O)C(=O)N[C@@H](CC(C)C)C(=O)NCC(=O)N[C@@H](CCCCN)C(=O)N[C@@H](Cc1cnc[nH]1)C(=O)N[C@@H](CC(C)C)C(=O)N[C@@H](CC(N)=O)C(=O)N[C@@H](CO)C(=O)N[C@@H](CCSC)C(=O)N[C@@H](CCC(=O)O)C(=O)N[C@@H](CCCN=C(N)N)C(=O)N[C@H](C(=O)N[C@@H](CCC(=O)O)C(=O)N[C@@H](Cc1c[nH]c2ccccc12)C(=O)N[C@@H](CC(C)C)C(=O)N[C@@H](CCCN=C(N)N)C(=O)N[C@@H](CCCCN)C(=O)N[C@@H](CCCCN)C(=O)N[C@@H](CC(C)C)C(=O)N[C@@H](CCC(N)=O)C(=O)N[C@@H](CC(=O)O)C(=O)N[C@H](C(=O)N[C@@H](Cc1cnc[nH]1)C(=O)N[C@@H](CC(N)=O)C(=O)N[C@@H](Cc1ccccc1)C(=O)O)C(C)C)C(C)C` [PTH (1-34), teriparatide], in test [1], the “pSmad2 (Western blot)” value is listed as “increased”. Besides, in test [2], the “start of translocation of PTH1R to cilia” value stood at 10 min and the “translocation of PTH1R to cilia” value is listed as “stimulated translocation of PTH1R to cilia significantly”. Further, the pCREB in cilia entry in test [2] (co-immunostaining with acetylated tubulin) is “increased”. The “PTH-enhanced transport of PTH1R to cilia” value in test [2] (knockdown of pallidin with siRNA) is “blocked”.
